According to patent publication US20100227313A1, “Methods and Compositions for Determining Altered Susceptibility of HIV-1 to Protease Inhibitor Treatment” (priority 2007, published 2010):

How the values were obtained:
HIV-1 = test: Resistance test vector (PHENOSENSE) phenotypic susceptibility assay, fold change in IC50, correlated with genotype (Fisher's Exact test, odds ratio); format: cell-based, human immunodeficiency virus type 1; details: 2862 clinical samples; FC relative to wild-type (NL4-3); FIG. 1
Excerpt: See Petropoulos et al., 2000, Antimicrob. Agents Chemother. 44:920-928; U.S. Pat. Nos. 5,837,464 and 6,242,187. PHENOSENSE™ is a phenotypic assay that achieves the benefits of phenotypic testing and overcomes the drawbacks of previous assays.
PHENOSENSE™ can obtain results with only one round of viral replication, thereby avoiding selection of subpopulations of virus that can occur during preparation of viral stocks required for assays that rely on fully infectious virus.
A resistance test vector (“RTV”) can then be constructed by incorporating the amplified viral gene sequences into a replication defective viral vector by using any method known in the art of incorporating gene sequences into a vector. In one embodiment, restrictions enzymes and conventional cloning methods are used. See Sambrook et al., 2001, Molecular Cloning: A Laboratory Manual, Cold Spring Harbor Laboratory, 3rd ed., NY; and Ausubel et al., 1989, Current Protocols in Molecular Biology, Greene Publishing Associates and Wiley Interscience, NY. In a preferred embodiment, ApaI and PinAI restriction enzymes are used. Preferably, the replication defective viral vector is the indicator gene viral vector (“IGVV”). In a preferred embodiment, the viral vector contains a means for detecting replication of the RTV. Preferably, the viral vector contains a luciferase expression cassette.
The assay can be performed by first co-transfecting host cells with RTV DNA and a plasmid that expresses the envelope proteins of another retrovirus, for example, amphotropic murine leukemia virus (MLV). Following transfection, viral particles can be harvested from the cell culture and used to infect fresh target cells in the presence of varying amounts of anti-viral drug(s). The completion of a single round of viral replication in the fresh target cells can be detected by the means for detecting replication contained in the vector. In a preferred embodiment, the completion of a single round of viral replication results in the production of luciferase. By monitoring the amount of, e.g., luciferase activity in the presence of the varying amounts of antiviral drug(s), a resistance curve can be constructed by plotting luciferase activity versus drug concentration. The susceptibility of an HIV, or population of HIV, can be determined by measuring the concentration of antiviral drug at which the luciferase activity detected is half-maximal. This number, the IC50, provides a standard and convenient measure of drug resistance.
Patient derived segment(s) corresponding to the HIV protease and reverse transcriptase coding regions were amplified by the reverse transcription polymerase chain reaction method (RT PCR) using viral RNA isolated from viral particles present in the plasma or serum of HIV infected individuals as follows. Viral RNA was isolated from the plasma or serum using oligo-dT magnetic beads (Dynal Biotech, Oslo, Norway), followed by washing and elution of viral RNA. The RT PCR protocol was divided into two steps. A retroviral reverse transcriptase (e.g. Moloney MuLV reverse transcriptase (Roche Molecular Systems, Inc., Branchburg, N.J.; Invitrogen, Carlsbad, Calif.), or avian myeloblastosis virus (AMV) reverse transcriptase, (Boehringer Mannheim, Indianapolis, Ind.) was used to copy viral RNA into cDNA. The cDNA was then amplified using a thermostable DNA polymerase (e.g. Taq (Roche Molecular Systems, Inc., Branchburg, N.J.), Tth (Roche Molecular Systems, Inc., Branchburg, N.J.), PRIMEZYME™ (isolated from Thermus brockianus, Biometra, Gottingen, Germany)) or a combination of thermostable polymerases as described for the performance of “long PCR” (Barnes, W.M., 1994, Proc. Natl. Acad. Sci, USA 91, 2216 20) (e.g. Expand High Fidelity PCR System (Taq+Pwo), (Boehringer Mannheim. Indianapolis, Ind.); GENEAMP XL™ PCR kit (Tth+Vent), (Roche Molecular Systems, Inc., Branchburg, N.J.); or […] II®, Clontech, Palo Alto, Calif.)

HIV protease = details: 2006, cited from earlier work; for effect of I47A mutation on susceptibility: de Mendoza et al.; for effect of L33F mutation in protease on susceptibility: Kozal et al.

Structure (SMILES) | correlation of FC in susceptibility with the FC in susceptibility for DRV (HIV-1) | effect of I47A mutation on susceptibility (HIV protease) | effect of L33F mutation in protease on susceptibility (HIV protease)
Cc1cccc(C)c1OCC(=O)N[C@@H](Cc1ccccc1)[C@@H](O)C[C@H](Cc1ccccc1)NC(=O)[C@H](C(C)C)N1CCCNC1=O [LPV, lopinavir] | no correlation | reduced susceptibility | correlate with resistance
COC(=O)N[C@H](C(=O)N[C@@H](Cc1ccccc1)[C@@H](O)CN(Cc1ccc(-c2ccccn2)cc1)NC(=O)[C@@H](NC(=O)OC)C(C)(C)C)C(C)(C)C [ATV, atazanavir] | no correlation | – | –
CC(C)(C)NC(=O)[C@@H]1C[C@@H]2CCCC[C@@H]2CN1C[C@@H](O)[C@H](Cc1ccccc1)NC(=O)[C@H](CC(N)=O)NC(=O)c1ccc2ccccc2n1 [saquinavir] | – | hypersusceptibility | correlate with resistance
CC(C)c1nc(CN(C)C(=O)N[C@H](C(=O)N[C@@H](Cc2ccccc2)C[C@H](O)[C@H](Cc2ccccc2)NC(=O)OCc2cncs2)C(C)C)cs1 [ritonavir] | – | – | correlate with resistance
